The results in this text go back to patent US20090029968A1, “QUINAZOLINE DERIVATIVES USED AS INHIBITORS OF ERBB TYROSINE KINASE” (priority 2005, published 2009).

One experiment has as its system BT474C cells. The experiment is described as follows: Test (e) BT474C cell proliferation assay. The experiment is classed as cell-based. The note with it: Homo sapiens, 96 h, four-day MTS endpoint, read-out: IC50 Test (e): Inhibition of proliferation of BT474C cells. An excerpt:
The BT-474 tumour cell line (human mammary carcinoma) was obtained from Dr Baselga (at Laboratorio Recerca Oncologica, Paseo Vall D'Hebron 119-129, Barcelona 08035, Spain). This cell line was subcloned and a certain population (hereinafter referred to as “BT474C”) was obtained.
e) BT474C Cell Proliferation Assay
BT474C cells are a sub-cloned population of in vivo competent cells, as discussed above.
The BT474C assay is a MTS (3-(4,5-dimethylthiazol-2-yl)-5-(3-carboxymethoxyphenyl)-2-(4-sulfophenyl)-2H-tetrazolium, inner salt—Promega G1111) endpoint-based cell proliferation assay, which measures the ability of a test compound to inhibit the proliferation of cells over a four-day period. […] Cell density is measured using a haemocytometer and viability is calculated using Trypan Blue solution before being further diluted in Assay Medium and seeded at a density of 1×10^4 cells per well (in 100 ul) into clear bottomed 96 well plates (Costar 3598). […] The plate is read at 490 nm on a spectrophotometer.
Assay plates are left at 37° C. for 4 days and then treated with MTS solution (as above), which is converted to a soluble formazan product by active cells. After incubating the plates for 2 hours the reaction is stopped by the addition of 10% SDS (Sodium dodecyl sulphate) and the plates are read at 490 nm on a spectrophotometer giving absorbance values relative to the concentration of converted dye. […]

For the next experiment, the target named is T1, erbB2 tyrosine kinase (Homo sapiens, UniProt P04626).
T1 construct: Recombinant intracellular fragments of EGFR, erbB2 and erbB4; made in house; host or cells: baculovirus/Sf21 insect cells (cleared lysate used)
The experiment is described as follows: Test (a) protein tyrosine kinase phosphorylation assay, erbB2. The experiment is classed as biochemical. The note with it: recombinant intracellular fragment, ATP at Km; read-out: IC50 Test (a): Inhibition of erbB2 tyrosine kinase protein phosphorylation. As for the experimental part:
(§1) a) Protein Tyrosine Kinase phosphorylation Assays
(§2) This test measures the ability of a test compound to inhibit the phosphorylation of a tyrosine containing polypeptide substrate by EGFR, erbB2 and erbB4 tyrosine kinase enzyme.
(§3) Recombinant intracellular fragments of EGFR, erbB2 and erbB4 (accession numbers X00588, X03363 and L07868 respectively) were cloned and expressed in the baculovirus/Sf21 system. […]
(§4) Constitutive kinase activity of these recombinant proteins was determined by their ability to phosphorylate a synthetic peptide (made up of a random co-polymer of Glutamic Acid, Alanine and Tyrosine in the ratio of 6:3:1). […]
(§5) The immobilised phospho-peptide product of the reaction was detected by immunological methods. […] After further washing, HRP activity in each well of the plate was measured […] using 22′-Azino-di-[3-ethylbenzthiazoline sulfonate (6)] diammonium salt crystals (ABTS™ from Roche) as a substrate.
(§6) Quantification of colour development and thus enzyme activity was achieved by the measurement of absorbance at 405 nm on a Molecular Devices ThermoMax microplate reader. Kinase inhibition for a given compound was expressed as an IC50 value. […] The range of phosphorylation was calculated from the positive (vehicle plus ATP) and negative (vehicle minus ATP) control values.

For another experiment, the target named is T2, EGFR tyrosine kinase (Homo sapiens, UniProt P00533).
T2 construct: Recombinant intracellular fragments of EGFR, erbB2 and erbB4; made in house; host or cells: baculovirus/Sf21 insect cells (cleared lysate used)
The experiment can be described thus: Test (a) protein tyrosine kinase phosphorylation assay, EGFR. The class given is biochemical. The note with it: recombinant intracellular fragment, ATP at Km; read-out: IC50 Test (a): Inhibition of EGFR tyrosine kinase protein phosphorylation. As for the experimental part:
as §1, §2, §3, §4, §5, §6

T1 sequence (P04626 676-1255 limits assumed): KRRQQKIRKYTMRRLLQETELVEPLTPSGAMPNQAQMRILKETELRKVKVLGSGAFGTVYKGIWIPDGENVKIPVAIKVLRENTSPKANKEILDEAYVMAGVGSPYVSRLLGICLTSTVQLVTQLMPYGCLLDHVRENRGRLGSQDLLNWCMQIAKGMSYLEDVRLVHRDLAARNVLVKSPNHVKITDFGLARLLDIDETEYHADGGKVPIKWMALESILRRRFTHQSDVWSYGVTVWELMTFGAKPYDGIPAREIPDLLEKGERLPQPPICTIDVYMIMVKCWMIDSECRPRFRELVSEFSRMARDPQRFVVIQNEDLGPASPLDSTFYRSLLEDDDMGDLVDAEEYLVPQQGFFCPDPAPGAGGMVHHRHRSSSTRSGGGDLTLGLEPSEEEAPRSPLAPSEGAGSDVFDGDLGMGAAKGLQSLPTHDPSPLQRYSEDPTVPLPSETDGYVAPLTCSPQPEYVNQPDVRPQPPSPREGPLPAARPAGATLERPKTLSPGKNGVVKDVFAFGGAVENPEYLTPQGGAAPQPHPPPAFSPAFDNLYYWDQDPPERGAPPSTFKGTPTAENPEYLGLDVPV
T2 sequence (P00533 669-1210 limits assumed): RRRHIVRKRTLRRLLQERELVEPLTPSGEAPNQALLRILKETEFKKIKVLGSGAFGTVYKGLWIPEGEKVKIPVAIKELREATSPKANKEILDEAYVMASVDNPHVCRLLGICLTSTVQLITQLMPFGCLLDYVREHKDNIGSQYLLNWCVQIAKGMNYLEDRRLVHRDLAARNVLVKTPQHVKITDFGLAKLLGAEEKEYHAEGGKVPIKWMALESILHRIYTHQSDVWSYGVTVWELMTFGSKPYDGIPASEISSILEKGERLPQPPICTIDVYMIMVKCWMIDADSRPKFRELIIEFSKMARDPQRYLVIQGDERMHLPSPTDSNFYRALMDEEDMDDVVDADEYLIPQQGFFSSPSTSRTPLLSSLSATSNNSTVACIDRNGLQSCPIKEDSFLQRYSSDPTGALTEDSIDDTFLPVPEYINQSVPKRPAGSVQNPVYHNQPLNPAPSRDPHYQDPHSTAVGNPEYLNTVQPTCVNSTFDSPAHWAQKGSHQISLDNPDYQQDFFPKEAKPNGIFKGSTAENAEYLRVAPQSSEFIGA

As for `C[C@@H](Oc1cccc2ncnc(Nc3ccc(C(=O)N4CCCCCC4)c(Cl)c3)c12)C(=O)N(C)CCO` [Example 1, (2R)-2-[(4-{[4-(azepan-1-ylcarbonyl)-3-chlorophenyl]amino}quinazolin-5-yl)oxy]-N-(2-hydroxyethyl)-N-methylpropanamide], the IC50 in the experiment with BT474C cells is 179 nM; at erbB2 tyrosine kinase, 15 nM; on EGFR tyrosine kinase, 333 nM.
The matching figures for `C[C@@H](Oc1cccc2ncnc(Nc3ccc(C(=O)N4CCCCC4)c(Cl)c3)c12)C(=O)N(C)CCO` [Example 2, (2R)-2-[(4-{[3-chloro-4-(piperidin-1-ylcarbonyl)phenyl]amino}quinazolin-5-yl)oxy]-N-(2-hydroxyethyl)-N-methylpropanamide]: 857 nM, 22 nM and 869 nM.
